This is an account of results in paper PMC5225203, “Multiparameter toxicity assessment of novel DOPO-derived organophosphorus flame retardants” (Archives of Toxicology, 2016).

Data set [1] deals with differentiating LUHMES cells. It counts as cell-based, human. Conditions: day 0 to day 2. As to the method:
LUHMES cells are conditionally immortalized human fetal ventral mesencephalic neuronal precursor cells that were obtained by clonal selection. Differentiated LUHMES cells show a clear dopaminergic phenotype, which was described in detail previously (Schildknecht et al. [2009]; Scholz et al. [2011]). Cells were propagated in advanced DMEM/F12 (Gibco/Invitrogen, Darmstadt, Germany) with 1 × N2 supplement (Invitrogen), 2 mM L-glutamine (Gibco), and 40 ng/mL recombinant bFGF (R&D Systems, Minneapolis, MN, USA). […] For quantitative evaluation of the neurite area, β-III-tubulin-stained cells were analyzed using an automated microplate-reading microscope (Array-Scan II® HCS Reader, Cellomics, Pittsburgh, PA, USA) equipped with a Hamamatsu ORCA-ER camera (1024 × 1024 resolution; run at 2 × 2 binning). […]
For quantitative assessment of total neurite mass, cells were analysed by an automated microscope system with imaging algorithms allowing a separation between cell bodies and […]
Suppl. […] Differentiating human dopaminergic neurons (LUHMES) were treate d with the different flame retardants in the concentrations as indicated for 48 h from day 0 to day 2 of differentiation. a Cell viability was determined by the resazurin redu ction and by the lactate dehydrogenase release assays. b Intracellular levels of ATP and of reduced glutathione (GSH) were measured in parallel.

The subject of data set [2] is A549 cells. Also on record: method as in Kim et al. [2014]. The note with it: same concentration range as used in the present study; ref Kim et al. [2014]; cited from earlier work.
The test system of data set [3] is rat neuroblastoma B35 cells. The note with it: B35, 24 h, maximal concentration 100 µM; ref Hendriks et al. [2014]; cited from earlier work.
The test system of data set [4] is rat adrenomedullary pheochromocytoma PC12 cells. The note with it: PC12, 24 h, maximal concentration 100 µM; ref Hendriks et al. [2014]; cited from earlier work.
Data set [5] concerns Daphnia magna. The note with it: water-soluble fraction of a 1000 mg/L suspension (approximately 2 mM), 48 h; ref Waaijers et al. [2013a], [b]; cited from earlier work.

For `O=P1(NCCNP2(=O)Oc3ccccc3-c3ccccc32)Oc2ccccc2-c2ccccc21` (stereo not drawn) [EDA-DOPO, 6,6′-(ethane-1,2-diylbis(azanediyl))bis(6H-dibenzo[c,e][1,2]oxaphosphinine-6-oxide)], in data set [1], the “influence on total neurite area” value is “moderate, but significant influence”; the “intracellular levels of ATP and GSH” value is “this effect was not reflected”.
As for `Brc1ccc(Oc2cc(Br)c(Br)cc2Br)c(Br)c1` [PBDE-99, reference compound], the “cell damage in A549 cells” value in data set [2] was “did not produce cell damage”.
On to `O=[PH]1Oc2ccccc2-c2ccccc21` (stereo not drawn) [DOPO, 9,10-dihydro-9-oxa-10-phosphaphenanthrene-10-oxide], for which the “alterations in cell viability, generation of reactive oxygen species, or intracellular Ca2+ levels” value in data set [3] and in data set [4] was “no signs of alterations” throughout. Moreover, in data set [5], the “influence on daphnid viability” value is given as “did not significantly influence viability”.
